Measured values reported in US20250230193A1, “CYCLIC COMPOUND HAVING SELECTIVE KRAS INHIBITORY EFFECT ON HRAS AND NRAS” (CHUGAI SEIYAKU KABUSHIKI KAISHA, priority 2022, published 2025).
Where a SMILES comes first, the peptide text is derived from it. Bridges are numbered along the chain shown (N, C = ends). [ ]: non-standard residue; d: D form. The star is where a group is joined. hPhe(3-Cl-4-CF3) = N[C@@H](CCc1ccc(C(F)(F)F)c(Cl)c1)C(=O)O; NPrPhe(4-CF3) = CCCN[C@@H](Cc1ccc(C(F)(F)F)cc1)C(=O)O; NMeGly(cPent) = CN[C@H](C(=O)O)C1CCCC1; Pro(4,4-F2) = O=C(O)[C@@H]1CC(F)(F)CN1; Hyp = O=C(O)[C@@H]1C[C@@H](O)CN1; NMeD = CN[C@@H](CC(=O)O)C(=O)O; NMeL = CN[C@@H](CC(C)C)C(=O)O; N(Me)CH2CH2OMe = COCCN(C)*; Morpholide = C1CN(*)CCO1; NMeA = CN[C@@H](C)C(=O)O; Ac5c = NC1(C(=O)O)CCCC1; Aze = O=C(O)[C@@H]1CCN1; Ac4c = NC1(C(=O)O)CCC1; Sar = CNCC(=O)O

Legend:
[1] = molecular target: GDP-bound HRAS wild-type protein (Homo sapiens, UniProt P01112); experiment: Binding to HRAS by surface plasmon resonance (SPR), Single Cycle Kinetics; details: KD ratio HRAS/KRAS, SPR
[2] = molecular target: GDP-bound NRAS wild-type protein (Homo sapiens, UniProt P01111); experiment: Binding to NRAS by surface plasmon resonance (SPR), Single Cycle Kinetics; details: KD ratio NRAS/KRAS, SPR
Chain of GDP-bound NRAS wild-type protein (P01111 whole entry): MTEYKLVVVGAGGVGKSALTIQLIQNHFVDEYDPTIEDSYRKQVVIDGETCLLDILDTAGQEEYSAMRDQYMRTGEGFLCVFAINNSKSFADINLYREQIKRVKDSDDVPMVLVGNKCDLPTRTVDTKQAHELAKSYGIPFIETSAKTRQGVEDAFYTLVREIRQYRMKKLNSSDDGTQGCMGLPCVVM

Chain of GDP-bound HRAS wild-type protein (P01112 whole entry): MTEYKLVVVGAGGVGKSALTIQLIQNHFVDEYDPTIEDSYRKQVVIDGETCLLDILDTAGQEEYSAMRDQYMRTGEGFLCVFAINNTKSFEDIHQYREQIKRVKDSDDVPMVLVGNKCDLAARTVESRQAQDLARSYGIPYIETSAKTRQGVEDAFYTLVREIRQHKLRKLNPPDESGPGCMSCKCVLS

Structure (SMILES) | HRAS/KRAS (ratio of KD for GDP-bound HRAS wild-type to KD for KRAS) [1] | NRAS/KRAS (ratio of KD for GDP-bound NRAS wild-type to KD for KRAS) [2]
CCCN1C(=O)[C@@H]2CCN2C(=O)[C@H](C)N(C)C(=O)[C@H]([C@@H](C)CC)NC(=O)[C@H](CC(C)C)N(C)C(=O)C[C@@H](C(=O)N(C)C)NC(=O)[C@H](C2CCCC2)N(C)C(=O)C2(CCC2)NC(=O)[C@@H]2CC(F)(F)CN2C(=O)[C@H](CCc2ccc(C(F)(F)F)c(Cl)c2)NC(=O)CN(C)C(=O)[C@@H]1Cc1ccc(C(F)(F)F)cc1 [PP0382] ([NMeL]I[NMeA][Aze][NPrPhe(4-CF3)][Sar][hPhe(3-Cl-4-CF3)][Pro(4,4-F2)][Ac4c][NMeGly(cPent)]D-NMe2; lactam N-11) | B (a compound having 3 or more and less than 10 is denoted as B) | C (A compound having a KD ratio of 0.1 or more and less than 3 is denoted as C)
CCCN1C(=O)[C@@H]2CCN2C(=O)[C@H](C)N(C)C(=O)[C@H]([C@@H](C)CC)NC(=O)[C@H](CC(C)C)N(C)C(=O)C[C@@H](C(=O)N(C)C)NC(=O)[C@H](C2CCCC2)N(C)C(=O)C2(CCCC2)NC(=O)[C@@H]2C[C@@H](OCC)CN2C(=O)[C@H](CCc2ccc(C(F)(F)F)c(Cl)c2)NC(=O)CN(C)C(=O)[C@@H]1Cc1ccc(C(F)(F)F)cc1 [PP0383] ([NMeL]I[NMeA][Aze][NPrPhe(4-CF3)][Sar][hPhe(3-Cl-4-CF3)][Hyp](Et)[Ac5c][NMeGly(cPent)]D-NMe2; lactam N-11) | B (a compound having 3 or more and less than 10 is denoted as B) | C (A compound having a KD ratio of 0.1 or more and less than 3 is denoted as C)
CCCN1C(=O)[C@@H]2CCN2C(=O)[C@H](C)N(C)C(=O)[C@H]([C@@H](C)CC)NC(=O)[C@H](CC(C)C)N(C)C(=O)C[C@@H](C(=O)N(C)C)NC(=O)[C@H](C2CCCC2)N(C)C(=O)C2(CCC2)NC(=O)[C@@H]2C[C@@H](OCC)CN2C(=O)[C@H](CCc2ccc(C(F)(F)F)c(Cl)c2)NC(=O)CN(C)C(=O)[C@@H]1Cc1ccc(C(F)(F)F)cc1 [PP0384] ([NMeL]I[NMeA][Aze][NPrPhe(4-CF3)][Sar][hPhe(3-Cl-4-CF3)][Hyp](Et)[Ac4c][NMeGly(cPent)]D-NMe2; lactam N-11) | B (a compound having 3 or more and less than 10 is denoted as B) | C (A compound having a KD ratio of 0.1 or more and less than 3 is denoted as C)
CCCN1C(=O)[C@@H]2CCN2C(=O)CN(C)C(=O)[C@H]([C@@H](C)CC)NC(=O)[C@H](CC(C)C)N(C)C(=O)C[C@@H](C(=O)N(C)C)NC(=O)[C@H](C2CCCC2)N(C)C(=O)C2(CCC2)NC(=O)[C@@H]2CCCN2C(=O)[C@H](CCc2ccc(C(F)(F)F)c(Cl)c2)NC(=O)CN(C)C(=O)[C@@H]1Cc1ccc(C(F)(F)F)cc1 [PP0386] ([NMeL]I[Sar][Aze][NPrPhe(4-CF3)][Sar][hPhe(3-Cl-4-CF3)]P[Ac4c][NMeGly(cPent)]D-NMe2; lactam N-11) | B (a compound having 3 or more and less than 10 is denoted as B) | C (A compound having a KD ratio of 0.1 or more and less than 3 is denoted as C)
CCCN1C(=O)[C@@H]2CCN2C(=O)CN(C)C(=O)[C@H]([C@@H](C)CC)NC(=O)[C@H](CC(C)C)N(C)C(=O)C[C@@H](C(=O)N(C)C)NC(=O)[C@H](C2CCCC2)N(C)C(=O)C2(CCCC2)NC(=O)[C@@H]2CC(F)(F)CN2C(=O)[C@H](CCc2ccc(C(F)(F)F)c(Cl)c2)NC(=O)CN(C)C(=O)[C@@H]1Cc1ccc(C(F)(F)F)cc1 [PP0387] ([NMeL]I[Sar][Aze][NPrPhe(4-CF3)][Sar][hPhe(3-Cl-4-CF3)][Pro(4,4-F2)][Ac5c][NMeGly(cPent)]D-NMe2; lactam N-11) | B (a compound having 3 or more and less than 10 is denoted as B) | C (A compound having a KD ratio of 0.1 or more and less than 3 is denoted as C)
CCCN1C(=O)[C@@H]2CCN2C(=O)CN(C)C(=O)[C@H]([C@@H](C)CC)NC(=O)[C@H](CC(C)C)N(C)C(=O)C[C@@H](C(=O)N(C)C)NC(=O)[C@H](C2CCCC2)N(C)C(=O)C2(CCC2)NC(=O)[C@@H]2CC(F)(F)CN2C(=O)[C@H](CCc2ccc(C(F)(F)F)c(Cl)c2)NC(=O)CN(C)C(=O)[C@@H]1Cc1ccc(C(F)(F)F)cc1 [PP0388] ([NMeL]I[Sar][Aze][NPrPhe(4-CF3)][Sar][hPhe(3-Cl-4-CF3)][Pro(4,4-F2)][Ac4c][NMeGly(cPent)]D-NMe2; lactam N-11) | B (a compound having 3 or more and less than 10 is denoted as B) | C (A compound having a KD ratio of 0.1 or more and less than 3 is denoted as C)
CCCN1C(=O)[C@@H]2CCN2C(=O)CN(C)C(=O)[C@H]([C@@H](C)CC)NC(=O)[C@H](CC(C)C)N(C)C(=O)C[C@@H](C(=O)N(C)C)NC(=O)[C@H](C2CCCC2)N(C)C(=O)C2(CCCC2)NC(=O)[C@@H]2C[C@@H](OCC)CN2C(=O)[C@H](CCc2ccc(C(F)(F)F)c(Cl)c2)NC(=O)CN(C)C(=O)[C@@H]1Cc1ccc(C(F)(F)F)cc1 [PP0389] ([NMeL]I[Sar][Aze][NPrPhe(4-CF3)][Sar][hPhe(3-Cl-4-CF3)][Hyp](Et)[Ac5c][NMeGly(cPent)]D-NMe2; lactam N-11) | B (a compound having 3 or more and less than 10 is denoted as B) | C (A compound having a KD ratio of 0.1 or more and less than 3 is denoted as C)
CCCN1C(=O)[C@@H]2CCN2C(=O)CN(C)C(=O)[C@H]([C@@H](C)CC)NC(=O)[C@H](CC(C)C)N(C)C(=O)C[C@@H](C(=O)N(C)C)NC(=O)[C@H](C2CCCC2)N(C)C(=O)C2(CCC2)NC(=O)[C@@H]2C[C@@H](OCC)CN2C(=O)[C@H](CCc2ccc(C(F)(F)F)c(Cl)c2)NC(=O)CN(C)C(=O)[C@@H]1Cc1ccc(C(F)(F)F)cc1 [PP0390] ([NMeL]I[Sar][Aze][NPrPhe(4-CF3)][Sar][hPhe(3-Cl-4-CF3)][Hyp](Et)[Ac4c][NMeGly(cPent)]D-NMe2; lactam N-11) | B (a compound having 3 or more and less than 10 is denoted as B) | C (A compound having a KD ratio of 0.1 or more and less than 3 is denoted as C)
CCCN1C(=O)CN(C)C(=O)CN(C)C(=O)[C@H]([C@@H](C)CC)NC(=O)[C@H](CC(C)C)N(C)C(=O)C[C@@H](C(=O)N(C)CCOC)N(C)C(=O)[C@H](C2CCCC2)N(C)C(=O)C2(CCCC2)NC(=O)[C@@H]2CCCN2C(=O)[C@H](CCc2ccc(C(F)(F)F)c(Cl)c2)NC(=O)CN(C)C(=O)[C@@H]1Cc1ccc(C(F)(F)F)cc1 [PP0391] ([NMeL]I[Sar][Sar][NPrPhe(4-CF3)][Sar][hPhe(3-Cl-4-CF3)]P[Ac5c][NMeGly(cPent)][NMeD]-{N(Me)CH2CH2OMe}; lactam N-11) | B (a compound having 3 or more and less than 10 is denoted as B) | B (a compound having 3 or more and less than 10 is denoted as B)
CCCN1C(=O)CN(C)C(=O)CN(C)C(=O)[C@H]([C@@H](C)CC)NC(=O)[C@H](CC(C)C)N(C)C(=O)C[C@@H](C(=O)N2CCOCC2)N(C)C(=O)[C@H](C2CCCC2)N(C)C(=O)C2(CCC2)NC(=O)[C@@H]2C[C@@H](OCC)CN2C(=O)[C@H](CCc2ccc(C(F)(F)F)c(Cl)c2)NC(=O)CN(C)C(=O)[C@@H]1Cc1ccc(C(F)(F)F)cc1 [PP0392] ([NMeL]I[Sar][Sar][NPrPhe(4-CF3)][Sar][hPhe(3-Cl-4-CF3)][Hyp](Et)[Ac4c][NMeGly(cPent)][NMeD]-Morpholide; lactam N-11) | C (A compound having a KD ratio of 0.1 or more and less than 3 is denoted as C) | B (a compound having 3 or more and less than 10 is denoted as B)
CCCN1C(=O)CN(C)C(=O)CNC(=O)[C@H]([C@@H](C)CC)NC(=O)[C@H](CC(C)C)N(C)C(=O)C[C@@H](C(=O)N2CCOCC2)N(C)C(=O)[C@H](C2CCCC2)N(C)C(=O)C2(CCC2)NC(=O)[C@@H]2CCCN2C(=O)[C@H](CCc2ccc(C(F)(F)F)c(Cl)c2)NC(=O)CN(C)C(=O)[C@@H]1Cc1ccc(C(F)(F)F)cc1 [PP0393] ([NMeL]IG[Sar][NPrPhe(4-CF3)][Sar][hPhe(3-Cl-4-CF3)]P[Ac4c][NMeGly(cPent)][NMeD]-Morpholide; lactam N-11) | B (a compound having 3 or more and less than 10 is denoted as B) | B (a compound having 3 or more and less than 10 is denoted as B)
CCCN1C(=O)CN(C)C(=O)CNC(=O)[C@H]([C@@H](C)CC)NC(=O)[C@H](CC(C)C)N(C)C(=O)C[C@@H](C(=O)N2CCOCC2)N(C)C(=O)[C@H](C2CCCC2)N(C)C(=O)C2(CCCC2)NC(=O)[C@@H]2CC(F)(F)CN2C(=O)[C@H](CCc2ccc(C(F)(F)F)c(Cl)c2)NC(=O)CN(C)C(=O)[C@@H]1Cc1ccc(C(F)(F)F)cc1 [PP0394] ([NMeL]IG[Sar][NPrPhe(4-CF3)][Sar][hPhe(3-Cl-4-CF3)][Pro(4,4-F2)][Ac5c][NMeGly(cPent)][NMeD]-Morpholide; lactam N-11) | C (A compound having a KD ratio of 0.1 or more and less than 3 is denoted as C) | C (A compound having a KD ratio of 0.1 or more and less than 3 is denoted as C)
